Test results taken from US5589467A, “2,5',N6-trisubstituted adenosine derivatives” (Novo Nordisk A/S, priority 1993, dated 1996).
Where two headings read alike, the source gives them in different places.

How the values were obtained:
A1 receptor = details: literature, qualitative; cited from earlier work
adenosine A1 receptor = target: T1, adenosine A1 receptor (Rattus norvegicus, UniProt P25099); assay: in vitro binding to adenosine A1 receptor ([3H]-R-PIA); details: for Ki: radioligand [3H]-R-PIA; for Ratio A2/A1: ratio of A2 to A1 receptor binding Ki
T1 construct: from tissue
T1 sequence (P25099 1-326): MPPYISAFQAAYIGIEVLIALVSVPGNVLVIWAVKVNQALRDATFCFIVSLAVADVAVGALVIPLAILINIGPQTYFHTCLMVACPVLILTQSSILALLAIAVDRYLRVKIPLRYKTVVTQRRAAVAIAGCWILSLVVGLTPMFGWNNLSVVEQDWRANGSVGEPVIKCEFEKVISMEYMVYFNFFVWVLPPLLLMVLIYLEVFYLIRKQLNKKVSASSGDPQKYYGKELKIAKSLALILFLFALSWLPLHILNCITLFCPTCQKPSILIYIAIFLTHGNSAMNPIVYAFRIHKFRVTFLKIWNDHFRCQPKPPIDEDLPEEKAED
From the text: (§1) Evaluation of in vitro binding to adenosine A1 and A2 receptors.
(§2) The methods both for the above in vitro examination of the compounds and the method used for DMCM-induced seizures in vivo are summarized in the European Journal of Pharmacology, 1993, 224, 221-228.

adenosine A2 receptor = target: T2, adenosine A2 receptor (Rattus norvegicus, UniProt P30543); assay: in vitro binding to adenosine A2 receptor ([3H]-CGS 21680)
T2 construct: from tissue
T2 sequence (P30543 whole entry): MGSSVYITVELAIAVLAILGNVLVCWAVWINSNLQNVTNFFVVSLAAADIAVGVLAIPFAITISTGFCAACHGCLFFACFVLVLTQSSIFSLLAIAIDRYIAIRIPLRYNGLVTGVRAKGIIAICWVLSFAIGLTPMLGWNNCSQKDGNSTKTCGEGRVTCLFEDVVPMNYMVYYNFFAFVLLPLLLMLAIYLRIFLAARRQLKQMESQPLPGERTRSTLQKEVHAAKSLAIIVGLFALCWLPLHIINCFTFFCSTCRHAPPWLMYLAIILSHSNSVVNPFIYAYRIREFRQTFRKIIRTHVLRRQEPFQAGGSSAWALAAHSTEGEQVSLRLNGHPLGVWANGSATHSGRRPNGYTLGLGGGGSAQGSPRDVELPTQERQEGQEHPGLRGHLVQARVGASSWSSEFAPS
From the text: as §1, §2

[1] = DMCM-induced seizures in vivo; details: read-out: DMCM-ind. seizures (ED50, mg/kg)
From the text: as §2

[2] = radioligand [3H]-CGS 21680, read-out: A2 Receptor Binding (Ki)
[3] = ED50, DMCM-induced seizures in vivo

| Compound | Ki (adenosine A1 receptor) [nM] | Ratio A2/A1 (adenosine A1 receptor) | Ki (adenosine A2 receptor; [2]) [nM] | selectivity for the A1 receptor over the A2 receptor (in words) (A1 receptor) | ED50 [1, 3] [mg/kg] | Ki (adenosine A2 receptor) [nM] | ED50 [1] [mg/kg] |
| --- | --- | --- | --- | --- | --- | --- | --- |
| OC[C@H]1O[C@@H](n2cnc3c(NC4CCCC4)nc(Cl)nc32)[C@H](O)[C@@H]1O [CCPA, 2-chloro-N-cyclopentyladenosine] |  |  |  | most selective for the A1 receptor over the A2 receptor |  |  |  |
| CN(C)Nc1nc(Cl)nc2c1ncn2[C@@H]1O[C@H](CCl)[C@@H](O)[C@H]1O [Example 11, 2,5'-Dichloro-5'-deoxy-N-(dimethylamino)adenosine] | 11 | 600 | 6600 |  | 4.7 |  |  |
| OC[C@H]1O[C@@H](n2cnc3c(NC4CCCC4)ncnc32)[C@H](O)[C@@H]1O [CPA, N-(cyclopentyl)adenosine, reference compound] |  |  |  |  |  | 192 | 0.2 |
| C[C@H](Cc1ccccc1)Nc1ncnc2c1ncn2[C@@H]1O[C@H](CO)[C@@H](O)[C@H]1O [R-PIA, (R)-N-(1-phenyl-2-propyl)adenosine, reference compound] |  |  |  |  |  |  | 0.5 |

More lines, main results first:

| Ki (adenosine A1 receptor) [nM] | Ratio A2/A1 (adenosine A1 receptor) | Ki (adenosine A2 receptor; [2]) [nM] | Compound | selectivity for the A1 receptor over the A2 receptor (in words) (A1 receptor) | ED50 [1, 3] [mg/kg] | Ki (adenosine A2 receptor) [nM] | ED50 [1] [mg/kg] |
| --- | --- | --- | --- | --- | --- | --- | --- |
| 6.4 | 428 | 2740 | O[C@@H]1[C@H](O)[C@@H](CCl)O[C@H]1n1cnc2c(NN3CCCCC3)nc(Cl)nc21 [Example 1, 2,5'-Dichloro-5'-deoxy-N-(1-piperidinyl)adenosine] |  | 0.4 |  |  |
| 74 | 63 | 4660 | CONc1nc(Cl)nc2c1ncn2[C@@H]1O[C@H](CCl)[C@@H](O)[C@H]1O [Example 12, 2,5'-Dichloro-5'-deoxy-N-methoxyadenosine] |  | 6.1 |  |  |
| 5.3 | 457 | 2420 | O[C@@H]1[C@H](O)[C@@H](CF)O[C@H]1n1cnc2c(NN3CCCCC3)nc(Cl)nc21 [Example 18, 2-Chloro-5'-deoxy-5'-fluoro-N-(1-piperidinyl)adenosine] |  | 1 |  |  |
